Data reported in PubChem BioAssay AID493132 (Sanford-Burnham Center for Chemical Genomics, 2011).
Active and inactive are the calls of the source.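 The calls were made as follows: active = EC50 below 100 µM for activating human gut alkaline phosphatase; inactive = the rest.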

Target: Intestinal-type alkaline phosphatase (Homo sapiens) (UniProt P09923)
Assay: human IAP activators, SAR follow-up, biochemical, luminescence (AID 493132)
Conditions: purified IAP, CDP-Star luminescence, 30 min

Sequence of Intestinal-type alkaline phosphatase (Homo sapiens) (P09923 whole entry, looked up): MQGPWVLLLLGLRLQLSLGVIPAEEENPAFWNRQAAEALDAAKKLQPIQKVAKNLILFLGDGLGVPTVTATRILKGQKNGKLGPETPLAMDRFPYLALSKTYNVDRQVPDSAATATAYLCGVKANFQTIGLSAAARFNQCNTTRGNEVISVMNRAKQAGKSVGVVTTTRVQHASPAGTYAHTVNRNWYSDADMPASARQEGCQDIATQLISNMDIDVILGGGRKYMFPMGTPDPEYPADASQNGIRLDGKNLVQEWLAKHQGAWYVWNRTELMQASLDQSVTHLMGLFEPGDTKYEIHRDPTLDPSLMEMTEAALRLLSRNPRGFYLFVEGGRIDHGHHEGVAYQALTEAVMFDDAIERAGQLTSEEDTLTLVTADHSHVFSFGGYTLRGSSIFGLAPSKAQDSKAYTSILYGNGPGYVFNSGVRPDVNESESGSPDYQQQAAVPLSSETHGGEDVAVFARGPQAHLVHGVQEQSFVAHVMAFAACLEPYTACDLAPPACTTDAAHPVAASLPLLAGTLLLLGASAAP

Row | Compound | EC50
1 | COc1ccc(-c2csc(Nc3cccc4ccccc34)n2)cc1F | > 100 µM (inactive)
2 | Cc1ccc(-c2cc(C(=O)NN=Cc3ccccc3O)n[nH]2)o1 | 6.19 µM
3 | O=C(NNC(=S)NC(=O)c1ccccc1[N+](=O)[O-])c1ccccc1O | 15.3 µM
4 | Cn1cccc1-c1cc(C(=O)NN=Cc2cc(Br)ccc2O)[nH]n1 | 9.91 µM
5 | O=C(NN=Cc1c(O)ccc2ccccc12)c1[nH]ncc1Br | 9.64 µM
6 | Cc1cc(C(=O)NN=Cc2cccc([N+](=O)[O-])c2O)n[nH]1 | 14.6 µM
7 | Cc1cc(C(=O)NN=Cc2cc(Cl)cc([N+](=O)[O-])c2O)n[nH]1 | 13.6 µM
8 | CCOc1cccc(C=NNC(=O)c2cc(C3CC3)[nH]n2)c1O | 7.63 µM
9 | CCCCOc1ccc(/C=N/NC(=O)C(=O)N/N=C/c2ccc(OCCCC)cc2)cc1 | > 100 µM (inactive)
10 | O=C(N/N=C/c1ccccc1O)c1n[nH]c2c1CCC2 | 8.25 µM
11 | COc1cc(/C=N\NC(=O)C(=O)N/N=C/c2cc(OC)c(O)c(OC)c2)cc(OC)c1O | 19.2 µM
12 | O=C(N/N=C/c1c(O)ccc2ccccc12)c1cc(-c2cccs2)[nH]n1 | 11.1 µM
13 | O=C(NC(=S)NNC(=O)c1ccccc1O)c1ccc(F)cc1 | 9.41 µM
14 | COc1cc(/C=N/NC(=O)C(=O)N/N=C/c2cc(OC)c(OC)c(OC)c2)cc(OC)c1OC | > 100 µM (inactive)
15 | O=C1Nc2ccc(Br)cc2C12NNc1ccccc1O2 (stereo unspecified) | 0.689 µM
16 | C/C(=N\NC(=O)c1cc(C)[nH]n1)c1ccc2ccccc2c1O | 6.59 µM
17 | COc1cc(OC)cc(C(=O)NNC(=O)c2nn(C)c(=O)c3ccccc23)c1 | 11.8 µM
18 | C/C(=N\NC(=O)c1[nH]nc2c1CCc1ccccc1-2)c1ccccc1O | 8.62 µM

Row | Compound | EC50
19 | COC(=O)c1ccc(/C=N/NC(=O)C(=O)N/N=C/c2ccc(C(=O)OC)cc2)cc1 | > 100 µM (inactive)
20 | CC(=O)Nc1ccc(/C=N/NC(=O)C(=O)N/N=C/c2ccc(NC(C)=O)cc2)cc1 | > 100 µM (inactive)
21 | O=C(CCN1C(=O)/C(=C/c2ccccc2Cl)SC1=S)NNC(=O)c1ccccc1O | 25.5 µM
22 | Cc1cc(C(=O)N/N=C\c2cc(C(C)(C)C)ccc2O)n[nH]1 | 7.65 µM
23 | OC(c1nc2ccc(F)cc2[nH]1)C(O)c1nc2ccc(F)cc2[nH]1 (stereo unspecified) | 6.78 µM
24 | CCOc1cccc(C=NNC(=O)c2cc(-c3cccn3C)n[nH]2)c1O | 12.5 µM
25 | COc1cc(OC)c(OC)cc1/C=N/NC(=O)C(=O)N/N=C/c1cc(OC)c(OC)cc1OC | > 100 µM (inactive)
26 | Cc1cc(C(=O)N/N=C/c2cc(Br)ccc2O)n[nH]1 | 9.33 µM
27 | COc1cccc(C=NNC(=O)c2[nH]nc3c2CCc2ccccc2-3)c1O | 9.65 µM
28 | CC(=O)Nc1cccc(C(=O)NNC(=O)c2n[nH]c(=O)c3ccccc23)c1 | 9.05 µM
29 | O=C(N/N=C/c1ccccc1O)c1cc(C2CC2)[nH]n1 | 10.2 µM
30 | COc1ccc(-c2cc(C(=O)NN=Cc3c(O)ccc4ccccc34)[nH]n2)cc1 | 19.6 µM
31 | COc1cccc(C=NNC(=O)c2cc(-c3cccn3C)n[nH]2)c1O | 8.6 µM
32 | CC(C)C(=O)NC(=S)Nc1ccccc1C(=O)Nc1ccccc1 | 8.68 µM
33 | COc1cccc(C=NNC(=O)C2=NNC(=O)C2C)c1O (stereo unspecified) | 8.22 µM
34 | Cc1ccc(O)c(C=NNC(=O)c2[nH]ncc2Br)c1 | 18.9 µM
35 | CN(C)c1ccc(/C=N/NC(=O)C(=O)N/N=C/c2ccc(N(C)C)cc2)cc1 | > 100 µM (inactive)
36 | O=C(N/N=C/c1cc(Br)ccc1O)c1cc(C2CC2)[nH]n1 | 11.3 µM

Further lines, results first:

Row | EC50 | Compound
37 | 30.7 µM | O=C(NN=Cc1ccccc1)C(=O)NN=Cc1ccccc1
38 | 84.6 µM | CC(=NNC(=O)C(=O)NN=C(C)c1cccc(O)c1)c1cccc(O)c1
39 | 39.3 µM | O=C(N/N=C/c1ccccc1C(=O)O)C(=O)N/N=C/c1ccccc1C(=O)O
40 | > 100 µM (inactive) | O=C(N/N=C/c1ccc2c(c1)OCO2)C(=O)N/N=C/c1ccc2c(c1)OCO2
41 | 36.4 µM | CC(C)Oc1ccccc1/C=N/NC(=O)C(=O)N/N=C/c1ccccc1OC(C)C
42 | > 100 µM (inactive) | CCN(CC)c1ccc(/C=N/NC(=O)C(=O)N/N=C/c2ccc(N(CC)CC)cc2O)c(O)c1
43 | 10.7 µM | CC1C(=O)NN=C1C(=O)NN=Cc1ccc(O)cc1O (stereo unspecified)
44 | > 100 µM (inactive) | CCOc1cc(/C=N/NC(=O)C(=O)N/N=C/c2ccc(O)c(OCC)c2)ccc1O
45 | 86.5 µM | N#CCOc1ccccc1/C=N/NC(=O)C(=O)N/N=C/c1ccccc1OCC#N
46 | 11 µM | O=C(N/N=C/c1cc(Br)ccc1O)C(=O)N/N=C/c1cc(Br)ccc1O
47 | 45 µM | O=C(N/N=C\c1cccc(O)c1)C(=O)N/N=C/c1cccc(O)c1
48 | > 100 µM (inactive) | O=C(N/N=C/c1c(O)ccc2ccccc12)C(=O)N/N=C/c1c(O)ccc2ccccc12
49 | > 100 µM (inactive) | COc1ccc(/C=N/NC(=O)C(=O)N/N=C/c2ccc(OC)c(OC)c2)cc1OC
50 | 90.7 µM | COc1ccc(OC)c(/C=N/NC(=O)C(=O)N/N=C/c2cc(OC)ccc2OC)c1
51 | > 100 µM (inactive) | O=C(N/N=C\c1ccc2c(c1)OCO2)C(=O)N/N=C/c1ccc2c(c1)OCO2
52 | 9.12 µM | COc1cccc(C=NNC(=O)C(=O)NN=Cc2cccc(OC)c2O)c1O
53 | 6.5 µM | O=C(NN=Cc1ccc(O)cc1O)C(=O)NN=Cc1ccc(O)cc1O
54 | 43.9 µM | O=C(N/N=C/c1ccc(O)cc1)C(=O)N/N=C/c1ccc(O)cc1
55 | 30.4 µM | COc1cccc(C=NNC(=O)C(=O)NN=Cc2cccc(OC)c2OC)c1OC
56 | 27.9 µM | COc1cc(/C=N/NC(=O)C(=O)N/N=C/c2ccc(O)c(OC)c2)ccc1O
